Our source for the MIC values is ChEMBL document CHEMBL1649321, “Plasmid-mediated resistance to cephalosporins in Salmonella enterica serovar Typhi” (2010).

The structures appear in SMILES notation. In brackets after ≈: the same amount, converted by molar mass.

Assay [1] concerns Salmonella typhi. The assay is described as follows: Antimicrobial activity against Salmonella enterica serovar Typhi isolate 080049Ty by broth microdilution method. The format is functional, Salmonella enterica subsp. enterica serovar Typhi. A general note: In broth dilution the organism is exposed to a series of concentrations in liquid medium.
The subject of assay [2] is Salmonella typhi. The assay is described as follows: Antimicrobial activity against Salmonella enterica serovar Typhi isolate 080048Ty by broth microdilution method. In kind it is functional, Salmonella enterica subsp. enterica serovar Typhi.
Assay [3] deals with Escherichia coli. The assay is described as follows: Antimicrobial activity against Escherichia coli W3110 transformant harboring bla CTX-M-15 gene by broth microdilution method. In kind it is functional.
The test system of assay [4] is Salmonella typhi. Description: Antimicrobial activity against Salmonella enterica serovar Typhi isolate 080048Ty transconjugant harboring bla CTX-M-15 gene by broth microdilution method. In kind it is functional, Salmonella enterica subsp. enterica serovar Typhi.
The subject of assay [5] is Salmonella typhi. The assay is described as follows: Antimicrobial activity against Salmonella enterica serovar Typhi isolate 080049Ty by broth microdilution method in presence of beta-lactamase inhibitor clavulanic acid. In kind it is functional, Salmonella enterica subsp. enterica serovar Typhi.
The subject of assay [6] is Salmonella typhi. The assay is described as follows: Antimicrobial activity against Salmonella enterica serovar Typhi isolate 080048Ty by broth microdilution method in presence of beta-lactamase inhibitor clavulanic acid. In kind it is functional, Salmonella enterica subsp. enterica serovar Typhi.
In assay [7] the test system is Escherichia coli. The assay is described as follows: Antimicrobial activity against Escherichia coli W3110 transformant harboring bla CTX-M-15 gene by broth microdilution method in presence of beta-lactamase inhibitor clavulanic acid. In kind it is functional.
The test system of assay [8] is Salmonella typhi. The assay is described as follows: Antimicrobial activity against Salmonella enterica serovar Typhi isolate 080048Ty transconjugant harboring bla CTX-M-15 gene by broth microdilution method in presence of beta-lactamase inhibitor clavulanic acid. In kind it is functional, Salmonella enterica subsp. enterica serovar Typhi.

Take `CC(C)(O/N=C(\C(=O)N[C@@H]1C(=O)N2C(C(=O)[O-])=C(C[n+]3ccccc3)CS[C@H]12)c1csc(N)n1)C(=O)O` [CEFTAZIDIME]: the MIC with Salmonella typhi [1] was found to be 64 µg/mL (≈ 117 µM); against Salmonella typhi [2], 1 µg/mL (≈ 1.83 µM); in the assay on Escherichia coli [3], 64 µg/mL (≈ 117 µM); in the assay on Salmonella typhi [4] it was 64 µg/mL (≈ 117 µM); in the assay with Salmonella typhi [5], 0.25 µg/mL; with Salmonella typhi [6], 0.25 µg/mL. In addition, the MIC in the assay on Escherichia coli [7] and in the assay with Salmonella typhi [8] was 0.25 µg/mL each time.
As for `CO/N=C(\C(=O)N[C@@H]1C(=O)N2C(C(=O)O)=C(COC(C)=O)CS[C@H]12)c1csc(N)n1` [CEFOTAXIME], the MIC with Salmonella typhi [1] is above 128 µg/mL; against Salmonella typhi [2] it was 0.125 µg/mL (≈ 0.274 µM); against Escherichia coli [3], above 128 µg/mL; in the assay on Salmonella typhi [4], above 128 µg/mL; in the assay on Salmonella typhi [5] it was below 0.125 µg/mL; in the assay on Salmonella typhi [6] it was below 0.125 µg/mL. Moreover, the MIC in the assay with Escherichia coli [7] and in the assay on Salmonella typhi [8] was below 0.125 µg/mL in each case.
Regarding `CC1(C)S[C@@H]2[C@H](NC(=O)[C@H](N)c3ccccc3)C(=O)N2[C@H]1C(=O)O` [AMPICILLIN], the MIC in the assay with Salmonella typhi [1] was above 64 µg/mL; against Salmonella typhi [2], below 2 µg/mL; in the assay on Escherichia coli [3] it was above 64 µg/mL; in the assay on Salmonella typhi [4], above 64 µg/mL.
Take `CO/N=C(\C(=O)N[C@@H]1C(=O)N2C(C(=O)O)=C(CSc3nc(=O)c(O)nn3C)CS[C@H]12)c1csc(N)n1` [CEFTRIAXONE]: the MIC against Salmonella typhi [1] is above 128 µg/mL; against Salmonella typhi [2], 0.125 µg/mL (≈ 0.225 µM); against Escherichia coli [3], above 128 µg/mL; against Salmonella typhi [4] it was above 128 µg/mL.
Consider `CCn1cc(C(=O)O)c(=O)c2ccc(C)nc21` [NALIDIXIC ACID], for which the MIC with Salmonella typhi [1] was above 64 µg/mL; in the assay on Salmonella typhi [2], above 64 µg/mL; in the assay on Escherichia coli [3], 32 µg/mL (≈ 138 µM); against Salmonella typhi [4] it was above 64 µg/mL.

For orientation: MIC means the least concentration at which growth counts as inhibited.
